Measured values reported in ChEMBL document CHEMBL5291721, “A preclinical secondary pharmacology resource illuminates target-adverse drug reaction associations of marketed drugs” (Nat Commun, 2023).

Tests used:
Acetylcholinesterase [1] = target: T1, Acetylcholinesterase (Homo sapiens, UniProt P22303); assay type: functional
[2] = target: Voltage-gated inwardly rectifying potassium channel KCNH2 (Homo sapiens, UniProt Q12809); assay type: functional; conditions: read-out: AC50
Bile salt export pump = Bile salt export pump (Homo sapiens, UniProt O95342); assay type: functional
Mu-type opioid receptor [3] = target: T2, Mu-type opioid receptor (Homo sapiens, UniProt P35372); assay: biochemical; assay type: functional
[4] = target: T3, Gamma-aminobutyric acid receptor subunit alpha-1 (Rattus norvegicus, UniProt P62813)
[5] = target: Glutamate receptor ionotropic, NMDA 1 (Rattus norvegicus, UniProt P35439)
[6] = target: Kappa-type opioid receptor (Homo sapiens, UniProt P41145)
Mu-type opioid receptor [7] = target: T2, Mu-type opioid receptor
[8] = target: Neuronal acetylcholine receptor subunit alpha-4 (Homo sapiens, UniProt P43681)
[9] = target: T3, Gamma-aminobutyric acid receptor subunit alpha-1; assay type: functional
[10] = target: T4, 5-hydroxytryptamine receptor 2B (Homo sapiens, UniProt P41595); assay type: functional, cell-based
D(1A) dopamine receptor = D(1A) dopamine receptor (Homo sapiens, UniProt P21728); assay type: functional, cell-based
D(3) dopamine receptor = D(3) dopamine receptor (Homo sapiens, UniProt P35462)
Cannabinoid receptor 1 = Cannabinoid receptor 1 (Homo sapiens, UniProt P21554)
[11] = target: Sodium-dependent noradrenaline transporter (Homo sapiens, UniProt P23975)
[12] = target: T4, 5-hydroxytryptamine receptor 2B; assay type: functional, cell-based; remark: listed apart in the source
[13] = target: 5-hydroxytryptamine receptor 2A (Homo sapiens, UniProt P28223); assay type: functional, cell-based
Acetylcholinesterase [14] = target: T1, Acetylcholinesterase; assay type: functional; remark: listed apart in the source
[15] = target: T5, Alpha-2C adrenergic receptor (Homo sapiens, UniProt P18825); assay type: functional
T5 sequence (P18825 whole entry): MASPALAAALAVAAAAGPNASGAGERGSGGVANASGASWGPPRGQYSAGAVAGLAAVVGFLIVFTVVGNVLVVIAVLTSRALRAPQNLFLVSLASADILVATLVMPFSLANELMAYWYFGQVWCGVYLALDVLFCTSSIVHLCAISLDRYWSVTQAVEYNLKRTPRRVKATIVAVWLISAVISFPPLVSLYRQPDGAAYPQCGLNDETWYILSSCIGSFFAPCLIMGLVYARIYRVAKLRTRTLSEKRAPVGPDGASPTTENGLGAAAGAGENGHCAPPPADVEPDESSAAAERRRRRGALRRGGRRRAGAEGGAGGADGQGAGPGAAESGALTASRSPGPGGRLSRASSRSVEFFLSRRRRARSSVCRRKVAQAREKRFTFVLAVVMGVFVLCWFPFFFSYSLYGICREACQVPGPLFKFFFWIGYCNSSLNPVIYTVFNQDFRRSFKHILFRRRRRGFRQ

[16] = target: T6, Muscarinic acetylcholine receptor M4 (Homo sapiens, UniProt P08173)
T6 sequence (P08173 whole entry): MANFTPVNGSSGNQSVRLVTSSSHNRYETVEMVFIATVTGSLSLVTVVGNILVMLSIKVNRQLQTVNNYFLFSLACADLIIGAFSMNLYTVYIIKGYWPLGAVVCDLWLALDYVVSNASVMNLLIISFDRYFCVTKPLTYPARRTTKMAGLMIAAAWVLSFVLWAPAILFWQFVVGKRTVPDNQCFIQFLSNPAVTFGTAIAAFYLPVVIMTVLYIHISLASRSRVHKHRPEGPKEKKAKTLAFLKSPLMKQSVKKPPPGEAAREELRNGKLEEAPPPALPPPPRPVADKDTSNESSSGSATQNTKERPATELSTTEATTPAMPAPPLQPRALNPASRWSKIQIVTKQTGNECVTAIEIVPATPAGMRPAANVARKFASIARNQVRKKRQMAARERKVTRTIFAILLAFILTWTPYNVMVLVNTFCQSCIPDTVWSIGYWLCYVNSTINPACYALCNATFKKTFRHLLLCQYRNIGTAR

[17] = target: T7, Muscarinic acetylcholine receptor M5 (Homo sapiens, UniProt P08912)
T7 sequence (P08912 whole entry): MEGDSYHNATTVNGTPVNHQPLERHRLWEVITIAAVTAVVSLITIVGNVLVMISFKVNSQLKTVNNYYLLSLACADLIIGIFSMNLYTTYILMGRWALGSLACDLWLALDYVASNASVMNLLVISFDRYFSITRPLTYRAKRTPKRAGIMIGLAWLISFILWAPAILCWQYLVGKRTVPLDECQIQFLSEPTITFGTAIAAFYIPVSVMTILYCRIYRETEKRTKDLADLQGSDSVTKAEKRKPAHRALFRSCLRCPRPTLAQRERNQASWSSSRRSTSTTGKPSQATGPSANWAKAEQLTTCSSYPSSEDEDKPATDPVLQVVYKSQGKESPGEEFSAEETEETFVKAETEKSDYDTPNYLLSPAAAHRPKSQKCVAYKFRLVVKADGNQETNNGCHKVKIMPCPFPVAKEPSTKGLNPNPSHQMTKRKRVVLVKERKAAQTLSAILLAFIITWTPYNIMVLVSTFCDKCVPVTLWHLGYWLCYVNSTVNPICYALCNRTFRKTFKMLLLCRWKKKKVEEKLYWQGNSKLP
Also: assay procedure not described here.

T1 sequence (P22303 whole entry): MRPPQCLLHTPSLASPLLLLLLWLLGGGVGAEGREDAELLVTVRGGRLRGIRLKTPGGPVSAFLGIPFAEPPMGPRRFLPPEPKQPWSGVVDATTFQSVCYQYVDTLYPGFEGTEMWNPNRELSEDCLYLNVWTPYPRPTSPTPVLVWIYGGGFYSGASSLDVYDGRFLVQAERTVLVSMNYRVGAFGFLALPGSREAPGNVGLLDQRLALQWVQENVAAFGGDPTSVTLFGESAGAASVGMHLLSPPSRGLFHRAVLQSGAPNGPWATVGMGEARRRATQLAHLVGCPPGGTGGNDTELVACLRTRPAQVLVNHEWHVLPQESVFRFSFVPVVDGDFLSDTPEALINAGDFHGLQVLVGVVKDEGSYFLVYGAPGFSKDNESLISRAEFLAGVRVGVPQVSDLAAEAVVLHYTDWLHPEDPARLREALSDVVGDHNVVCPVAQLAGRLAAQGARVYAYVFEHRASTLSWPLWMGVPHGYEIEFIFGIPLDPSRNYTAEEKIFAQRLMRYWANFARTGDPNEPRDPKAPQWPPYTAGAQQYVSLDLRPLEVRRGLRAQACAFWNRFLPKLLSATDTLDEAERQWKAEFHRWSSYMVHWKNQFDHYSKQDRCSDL
T3 sequence (P62813 whole entry): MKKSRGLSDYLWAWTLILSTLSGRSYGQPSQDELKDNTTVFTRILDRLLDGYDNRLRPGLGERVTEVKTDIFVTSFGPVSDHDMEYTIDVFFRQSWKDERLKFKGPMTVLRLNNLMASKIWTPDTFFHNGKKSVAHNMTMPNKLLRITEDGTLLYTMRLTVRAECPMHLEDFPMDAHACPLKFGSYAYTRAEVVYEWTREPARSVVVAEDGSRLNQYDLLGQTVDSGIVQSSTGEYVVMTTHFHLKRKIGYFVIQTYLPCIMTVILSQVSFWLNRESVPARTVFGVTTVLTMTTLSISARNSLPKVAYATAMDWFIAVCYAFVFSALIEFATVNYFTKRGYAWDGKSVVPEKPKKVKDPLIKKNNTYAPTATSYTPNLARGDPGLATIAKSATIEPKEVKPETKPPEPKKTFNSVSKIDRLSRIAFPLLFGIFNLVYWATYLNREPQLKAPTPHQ
T2 sequence (P35372 whole entry): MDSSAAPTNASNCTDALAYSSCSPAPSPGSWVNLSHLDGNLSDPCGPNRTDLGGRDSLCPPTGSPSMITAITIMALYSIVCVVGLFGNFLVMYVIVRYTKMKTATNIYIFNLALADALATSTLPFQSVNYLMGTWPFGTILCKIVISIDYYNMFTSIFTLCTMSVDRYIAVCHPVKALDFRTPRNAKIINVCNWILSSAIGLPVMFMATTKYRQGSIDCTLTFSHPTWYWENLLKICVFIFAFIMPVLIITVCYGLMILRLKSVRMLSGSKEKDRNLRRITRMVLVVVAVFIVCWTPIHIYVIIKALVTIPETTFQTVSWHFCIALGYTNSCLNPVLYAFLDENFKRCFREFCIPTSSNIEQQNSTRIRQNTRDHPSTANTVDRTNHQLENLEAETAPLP
T4 sequence (P41595 whole entry): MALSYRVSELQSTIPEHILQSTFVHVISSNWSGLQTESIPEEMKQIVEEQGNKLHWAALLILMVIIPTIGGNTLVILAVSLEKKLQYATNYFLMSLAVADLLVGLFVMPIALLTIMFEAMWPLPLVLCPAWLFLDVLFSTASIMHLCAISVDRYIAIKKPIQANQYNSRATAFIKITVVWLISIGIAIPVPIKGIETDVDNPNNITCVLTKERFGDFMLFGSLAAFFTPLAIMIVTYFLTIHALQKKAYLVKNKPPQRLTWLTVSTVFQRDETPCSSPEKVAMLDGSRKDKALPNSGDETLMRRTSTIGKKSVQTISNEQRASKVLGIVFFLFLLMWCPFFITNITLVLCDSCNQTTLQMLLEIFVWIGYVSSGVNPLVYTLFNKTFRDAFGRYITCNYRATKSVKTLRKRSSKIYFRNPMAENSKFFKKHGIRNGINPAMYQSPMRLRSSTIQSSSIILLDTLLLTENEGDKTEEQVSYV
Chain of Neuronal acetylcholine receptor subunit alpha-4 (P43681 whole entry): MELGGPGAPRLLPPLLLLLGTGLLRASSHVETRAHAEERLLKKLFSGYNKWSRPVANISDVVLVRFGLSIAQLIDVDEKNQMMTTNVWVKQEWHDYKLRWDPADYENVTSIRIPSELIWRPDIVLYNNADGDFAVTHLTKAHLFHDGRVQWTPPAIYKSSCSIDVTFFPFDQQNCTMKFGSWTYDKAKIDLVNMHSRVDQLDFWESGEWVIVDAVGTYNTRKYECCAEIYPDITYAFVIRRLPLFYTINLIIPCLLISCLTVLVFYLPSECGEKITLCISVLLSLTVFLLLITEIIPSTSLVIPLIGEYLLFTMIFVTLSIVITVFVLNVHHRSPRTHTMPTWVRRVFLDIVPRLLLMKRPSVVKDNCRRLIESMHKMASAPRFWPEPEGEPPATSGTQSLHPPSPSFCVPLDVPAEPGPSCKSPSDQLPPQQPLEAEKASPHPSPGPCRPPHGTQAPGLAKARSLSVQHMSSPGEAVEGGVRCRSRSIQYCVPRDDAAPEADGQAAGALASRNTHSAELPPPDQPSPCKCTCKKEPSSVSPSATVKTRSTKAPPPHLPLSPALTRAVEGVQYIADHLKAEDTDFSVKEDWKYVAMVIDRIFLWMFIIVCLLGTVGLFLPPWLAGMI
Chain of Cannabinoid receptor 1 (P21554 whole entry): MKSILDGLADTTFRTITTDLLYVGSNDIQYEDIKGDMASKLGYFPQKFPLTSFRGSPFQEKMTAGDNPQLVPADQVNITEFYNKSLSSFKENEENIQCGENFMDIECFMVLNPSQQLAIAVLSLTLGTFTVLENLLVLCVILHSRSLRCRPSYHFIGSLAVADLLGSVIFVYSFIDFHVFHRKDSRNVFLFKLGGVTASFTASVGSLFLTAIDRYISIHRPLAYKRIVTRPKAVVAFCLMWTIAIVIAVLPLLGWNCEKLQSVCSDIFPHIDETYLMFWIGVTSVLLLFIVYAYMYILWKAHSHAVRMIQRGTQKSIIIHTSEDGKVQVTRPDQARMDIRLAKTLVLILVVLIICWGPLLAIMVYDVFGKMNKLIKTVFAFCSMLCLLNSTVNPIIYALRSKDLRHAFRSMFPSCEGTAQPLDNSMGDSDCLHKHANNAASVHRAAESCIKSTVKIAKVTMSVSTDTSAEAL
Chain of 5-hydroxytryptamine receptor 2A (P28223 whole entry): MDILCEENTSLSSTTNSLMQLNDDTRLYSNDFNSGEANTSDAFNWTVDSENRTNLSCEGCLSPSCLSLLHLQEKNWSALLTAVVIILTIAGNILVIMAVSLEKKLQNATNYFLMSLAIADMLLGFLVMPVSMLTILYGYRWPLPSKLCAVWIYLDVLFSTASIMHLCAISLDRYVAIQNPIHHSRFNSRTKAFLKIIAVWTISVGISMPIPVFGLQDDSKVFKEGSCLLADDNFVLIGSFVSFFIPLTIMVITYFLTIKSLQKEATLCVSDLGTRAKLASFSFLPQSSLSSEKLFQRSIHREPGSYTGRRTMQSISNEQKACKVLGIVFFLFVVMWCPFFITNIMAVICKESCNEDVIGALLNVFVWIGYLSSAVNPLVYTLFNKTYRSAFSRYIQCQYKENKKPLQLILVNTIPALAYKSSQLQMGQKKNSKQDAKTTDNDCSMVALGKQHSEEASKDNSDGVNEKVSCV
Chain of D(1A) dopamine receptor (P21728 whole entry): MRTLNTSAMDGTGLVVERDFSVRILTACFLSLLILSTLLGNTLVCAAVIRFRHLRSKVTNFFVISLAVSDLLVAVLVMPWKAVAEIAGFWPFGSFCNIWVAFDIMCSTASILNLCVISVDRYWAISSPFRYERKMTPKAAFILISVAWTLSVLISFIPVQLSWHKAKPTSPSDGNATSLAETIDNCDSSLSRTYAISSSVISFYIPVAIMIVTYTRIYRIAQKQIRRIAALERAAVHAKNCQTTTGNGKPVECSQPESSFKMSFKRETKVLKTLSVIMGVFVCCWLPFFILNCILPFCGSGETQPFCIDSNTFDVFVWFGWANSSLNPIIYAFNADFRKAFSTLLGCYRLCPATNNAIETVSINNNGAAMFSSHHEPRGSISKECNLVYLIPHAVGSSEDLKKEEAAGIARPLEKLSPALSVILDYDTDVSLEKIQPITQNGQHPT
Chain of Sodium-dependent noradrenaline transporter (P23975 whole entry): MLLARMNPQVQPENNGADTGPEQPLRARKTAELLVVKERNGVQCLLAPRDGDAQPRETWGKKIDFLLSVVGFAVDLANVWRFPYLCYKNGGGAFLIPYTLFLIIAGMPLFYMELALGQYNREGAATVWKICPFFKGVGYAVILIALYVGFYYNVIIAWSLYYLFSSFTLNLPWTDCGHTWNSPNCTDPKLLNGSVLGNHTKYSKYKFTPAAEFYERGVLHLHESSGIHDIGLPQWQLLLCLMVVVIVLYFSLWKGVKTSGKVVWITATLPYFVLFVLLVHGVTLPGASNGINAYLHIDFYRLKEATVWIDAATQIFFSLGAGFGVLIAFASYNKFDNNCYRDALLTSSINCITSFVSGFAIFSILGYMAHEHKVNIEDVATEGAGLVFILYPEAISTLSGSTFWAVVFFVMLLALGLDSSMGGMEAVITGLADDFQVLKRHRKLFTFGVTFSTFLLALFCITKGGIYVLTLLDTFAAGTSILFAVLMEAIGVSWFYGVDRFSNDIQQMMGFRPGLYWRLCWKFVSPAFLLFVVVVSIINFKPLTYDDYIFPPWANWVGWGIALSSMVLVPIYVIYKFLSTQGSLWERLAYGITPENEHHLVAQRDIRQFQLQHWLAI
Chain of D(3) dopamine receptor (P35462 whole entry): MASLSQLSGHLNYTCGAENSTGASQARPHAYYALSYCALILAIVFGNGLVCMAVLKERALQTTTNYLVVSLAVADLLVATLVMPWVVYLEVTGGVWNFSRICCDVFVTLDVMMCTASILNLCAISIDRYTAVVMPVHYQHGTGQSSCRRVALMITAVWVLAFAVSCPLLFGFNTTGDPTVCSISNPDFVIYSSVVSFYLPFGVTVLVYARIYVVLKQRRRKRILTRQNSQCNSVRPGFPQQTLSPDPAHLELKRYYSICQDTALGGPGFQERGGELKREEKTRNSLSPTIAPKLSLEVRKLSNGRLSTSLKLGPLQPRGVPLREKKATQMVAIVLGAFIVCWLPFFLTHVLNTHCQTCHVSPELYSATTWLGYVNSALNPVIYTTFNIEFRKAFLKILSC

## CC(=O)[C@H]1CC[C@H]2[C@@H]3CCC4=CC(=O)CC[C@]4(C)[C@H]3CC[C@]12C [PROGESTERONE]
Acetylcholinesterase [1]
  AC50: > 30 µM

## C[N+]1(C)[C@@H]2CC[C@H]1C[C@@H](OC(=O)C(O)c1ccccc1)C2 (some centres not stated) [METHYLHOMATROPINE]
[2]
  AC50: > 30 µM

## Nc1cccc2c1CN(C1CCC(=O)NC1=O)C2=O (configuration not stated) [LENALIDOMIDE]
Bile salt export pump
  AC50: > 300 µM

## CCN(CC)C(=S)SSC(=S)N(CC)CC
Acetylcholinesterase [1]
  AC50: 14.2 µM

## CCCC(=O)Nc1ncnc2c1ncn2[C@@H]1O[C@@H]2COP(=O)(O)O[C@H]2[C@H]1OC(=O)CCC [BUCLADESINE]
Acetylcholinesterase [1]
  AC50: > 30 µM

## O=C1CC2(CCCC2)CC(=O)N1CCCCN1CCN(c2ncccn2)CC1 [BUSPIRONE]
Mu-type opioid receptor [3]
  AC50: > 30 µM
[4]
  AC50: > 10 µM
[5]
  AC50: > 10 µM
[6]
  AC50: > 10 µM
Mu-type opioid receptor [7]
  AC50: > 30 µM
[8]
  AC50: > 10 µM
[9]
  AC50: > 10 µM
[10]
  AC50: 7.37 µM
D(1A) dopamine receptor
  AC50: > 10 µM
D(3) dopamine receptor
  AC50: 0.048 µM
Cannabinoid receptor 1
  AC50: 17.5 µM
[11]
  AC50: > 30 µM
[12]
  AC50: > 10 µM

## CCN(c1cc(-c2ccc(CN3CCOCC3)cc2)cc(C(=O)NCc2c(C)cc(C)[nH]c2=O)c1C)C1CCOCC1 [TAZEMETOSTAT]
[13]
  AC50: > 30 µM
Acetylcholinesterase [14]
  AC50: > 30 µM

## CN1CCN2c3ccccc3Cc3ccccc3C2C1 (configuration not stated) [MIANSERIN]
Acetylcholinesterase [1]
  AC50: > 30 µM
[15]
  AC50: 0.05 µM

## C[N+]1(C)[C@@H]2C[C@@H](OC(=O)C(O)(c3cccs3)c3cccs3)C[C@H]1[C@@H]1O[C@@H]12 [TIOTROPIUM BROMIDE]
[16]
  AC50: 0.0003 µM
[17]
  AC50: 0.0015 µM

## CC/C(=C(/CC)c1ccc(O)cc1)c1ccc(O)cc1 [DIETHYLSTILBESTROL]
Acetylcholinesterase [1]
  AC50: > 30 µM

## NCCCC[C@H](N[C@@H](CCc1ccccc1)C(=O)O)C(=O)N1CCC[C@H]1C(=O)O [LISINOPRIL ANHYDROUS]
Acetylcholinesterase [1]
  AC50: > 30 µM

## NC(=O)OC[C@@H]1[C@H](NC(=O)/C(=N\OCC(=O)O)c2csc(N)n2)C(=O)N1S(=O)(=O)O [CARUMONAM]
Acetylcholinesterase [14]
  AC50: > 500 µM
